# Experimental data reported in publication PMC12090182, “Repurposing of the RIPK1-Selective Benzo[1,4]oxazepin-4-one Scaffold for the Development of a Type III LIMK1/2 Inhibitor” (ACS Chemical Biology, 2025).
# Where two headings read alike, the source gives them in different places.
# What was measured:
# Assay in all cases: biochemical
# Assay type in all cases: binding
# [1] = biological target: 468 kinases including some pathogenic mutants (Homo sapiens, UniProt Q16566); settings: CAMK4 (Entrez CAMK4), 100 nM; read-out: Percent Control
# [2] = biological target: 468 kinases including some pathogenic mutants (Homo sapiens, UniProt P46734); settings: MEK3 (Entrez MAP2K3), 100 nM; read-out: Percent Control
# [3] = biological target: 468 kinases including some pathogenic mutants (Homo sapiens, UniProt P19525); settings: PRKR (Entrez EIF2AK2), 1000 nM; read-out: Percent Control
# [4] = biological target: 468 kinases including some pathogenic mutants (Homo sapiens, UniProt P07949, M918T); settings: read-out: Percent Control
# 468 kinases including some pathogenic mutants (Homo sapiens, UniProt P07949, M918T), sequence (P07949 29-1114 M918T): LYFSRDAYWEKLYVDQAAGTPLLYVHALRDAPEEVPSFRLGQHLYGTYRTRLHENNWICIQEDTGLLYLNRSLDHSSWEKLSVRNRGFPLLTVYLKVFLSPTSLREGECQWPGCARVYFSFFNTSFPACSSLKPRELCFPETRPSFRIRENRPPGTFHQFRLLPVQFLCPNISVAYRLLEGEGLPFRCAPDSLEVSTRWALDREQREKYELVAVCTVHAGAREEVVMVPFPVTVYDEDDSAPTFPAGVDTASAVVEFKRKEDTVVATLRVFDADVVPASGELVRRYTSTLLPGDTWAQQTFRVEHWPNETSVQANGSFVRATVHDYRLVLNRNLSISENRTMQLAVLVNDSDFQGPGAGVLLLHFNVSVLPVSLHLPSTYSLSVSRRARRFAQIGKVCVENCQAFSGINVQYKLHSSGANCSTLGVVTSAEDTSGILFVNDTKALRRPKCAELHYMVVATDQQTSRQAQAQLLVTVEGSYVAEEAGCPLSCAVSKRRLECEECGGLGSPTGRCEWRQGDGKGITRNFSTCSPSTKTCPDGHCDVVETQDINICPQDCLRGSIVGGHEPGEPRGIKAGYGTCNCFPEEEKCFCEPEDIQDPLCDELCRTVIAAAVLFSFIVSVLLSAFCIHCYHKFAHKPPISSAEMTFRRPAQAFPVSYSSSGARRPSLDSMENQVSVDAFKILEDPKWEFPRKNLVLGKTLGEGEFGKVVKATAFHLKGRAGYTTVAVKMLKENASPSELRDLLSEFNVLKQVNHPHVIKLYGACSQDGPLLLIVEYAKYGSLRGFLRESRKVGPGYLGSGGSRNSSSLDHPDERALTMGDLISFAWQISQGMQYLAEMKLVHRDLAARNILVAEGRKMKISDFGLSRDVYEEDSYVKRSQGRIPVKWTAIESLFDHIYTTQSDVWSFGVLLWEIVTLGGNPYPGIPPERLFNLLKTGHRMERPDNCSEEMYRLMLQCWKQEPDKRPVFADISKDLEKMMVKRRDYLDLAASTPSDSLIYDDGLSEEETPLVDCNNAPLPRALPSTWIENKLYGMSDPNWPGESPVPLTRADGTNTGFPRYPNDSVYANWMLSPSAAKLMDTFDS
# [5] = biological target: 468 kinases including some pathogenic mutants (Homo sapiens, UniProt Q9NRH2); settings: SNRK (Entrez SNRK), 1000 nM; read-out: Percent Control
# [6] = test system: 468 kinases including some pathogenic mutants
# [7] = biological target: 468 kinases including some pathogenic mutants (Homo sapiens, UniProt P11802); settings: 100 nM, read-out: Percent Control
# 468 kinases including some pathogenic mutants (Homo sapiens, UniProt P11802), sequence (P11802 whole entry, change not shown): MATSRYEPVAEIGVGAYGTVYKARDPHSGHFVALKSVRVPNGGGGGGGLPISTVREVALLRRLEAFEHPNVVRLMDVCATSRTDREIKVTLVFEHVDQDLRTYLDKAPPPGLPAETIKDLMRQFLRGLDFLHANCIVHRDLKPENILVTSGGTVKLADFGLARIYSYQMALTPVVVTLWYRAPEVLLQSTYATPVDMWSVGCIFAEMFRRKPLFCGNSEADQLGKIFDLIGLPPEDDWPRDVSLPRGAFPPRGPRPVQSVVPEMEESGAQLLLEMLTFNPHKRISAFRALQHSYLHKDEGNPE
# [8] = biological target: 468 kinases including some pathogenic mutants (Homo sapiens, UniProt P08581); settings: MET (Entrez MET), 100 nM; read-out: Percent Control
# [9] = biological target: 468 kinases including some pathogenic mutants (Homo sapiens, UniProt Q9NWZ3); settings: IRAK4 (Entrez IRAK4), 1000 nM; read-out: Percent Control
# [10] = biological target: 468 kinases including some pathogenic mutants (Homo sapiens, UniProt O00329); settings: PIK3CD (Entrez PIK3CD), 100 nM; read-out: Percent Control
# [11] = biological target: 468 kinases including some pathogenic mutants (Homo sapiens, UniProt O14730); settings: RIOK3 (Entrez RIOK3), 100 nM; read-out: Percent Control
# 468 kinases including some pathogenic mutants (Homo sapiens, UniProt O14730), sequence (O14730 whole entry, change not shown): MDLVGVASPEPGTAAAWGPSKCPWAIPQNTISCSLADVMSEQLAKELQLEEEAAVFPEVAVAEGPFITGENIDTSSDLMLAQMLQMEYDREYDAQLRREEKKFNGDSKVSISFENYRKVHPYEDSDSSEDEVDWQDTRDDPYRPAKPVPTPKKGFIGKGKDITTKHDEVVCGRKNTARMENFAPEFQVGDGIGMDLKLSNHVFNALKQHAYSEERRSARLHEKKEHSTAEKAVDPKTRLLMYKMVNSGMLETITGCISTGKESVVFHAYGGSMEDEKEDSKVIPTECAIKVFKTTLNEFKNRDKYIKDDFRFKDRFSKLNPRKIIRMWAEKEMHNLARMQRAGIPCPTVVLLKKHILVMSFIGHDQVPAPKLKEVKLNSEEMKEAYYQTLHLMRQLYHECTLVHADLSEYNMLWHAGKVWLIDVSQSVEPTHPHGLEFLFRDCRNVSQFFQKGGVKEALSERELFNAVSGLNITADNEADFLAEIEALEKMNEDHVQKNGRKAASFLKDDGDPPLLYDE
# [12] = biological target: 468 kinases including some pathogenic mutants (Homo sapiens, UniProt Q86YV6); settings: MYLK4 (Entrez MYLK4), 1000 nM; read-out: Percent Control
# [13] = biological target: 468 kinases including some pathogenic mutants (Homo sapiens, UniProt Q99640); settings: PKMYT1 (Entrez PKMYT1), 100 nM; read-out: Percent Control
# [14] = biological target: 468 kinases including some pathogenic mutants (Homo sapiens, UniProt Q99759); settings: MAP3K3 (Entrez MAP3K3), 100 nM; read-out: Percent Control
# [15] = biological target: 468 kinases including some pathogenic mutants (Homo sapiens, UniProt P35968); settings: VEGFR2 (Entrez KDR), 100 nM; read-out: Percent Control
# [16] = biological target: 468 kinases including some pathogenic mutants (Homo sapiens, UniProt Q9H2K8); settings: TAOK3 (Entrez TAOK3), 100 nM; read-out: Percent Control
# [17] = biological target: 468 kinases including some pathogenic mutants (Homo sapiens, UniProt P32298); settings: GRK4 (Entrez GRK4), 100 nM; read-out: Percent Control
# [18] = biological target: 468 kinases including some pathogenic mutants (Homo sapiens, UniProt Q15746); settings: MYLK (Entrez MYLK), 100 nM; read-out: Percent Control
# 468 kinases including some pathogenic mutants (Homo sapiens, UniProt Q15746), sequence (Q15746 whole entry, change not shown): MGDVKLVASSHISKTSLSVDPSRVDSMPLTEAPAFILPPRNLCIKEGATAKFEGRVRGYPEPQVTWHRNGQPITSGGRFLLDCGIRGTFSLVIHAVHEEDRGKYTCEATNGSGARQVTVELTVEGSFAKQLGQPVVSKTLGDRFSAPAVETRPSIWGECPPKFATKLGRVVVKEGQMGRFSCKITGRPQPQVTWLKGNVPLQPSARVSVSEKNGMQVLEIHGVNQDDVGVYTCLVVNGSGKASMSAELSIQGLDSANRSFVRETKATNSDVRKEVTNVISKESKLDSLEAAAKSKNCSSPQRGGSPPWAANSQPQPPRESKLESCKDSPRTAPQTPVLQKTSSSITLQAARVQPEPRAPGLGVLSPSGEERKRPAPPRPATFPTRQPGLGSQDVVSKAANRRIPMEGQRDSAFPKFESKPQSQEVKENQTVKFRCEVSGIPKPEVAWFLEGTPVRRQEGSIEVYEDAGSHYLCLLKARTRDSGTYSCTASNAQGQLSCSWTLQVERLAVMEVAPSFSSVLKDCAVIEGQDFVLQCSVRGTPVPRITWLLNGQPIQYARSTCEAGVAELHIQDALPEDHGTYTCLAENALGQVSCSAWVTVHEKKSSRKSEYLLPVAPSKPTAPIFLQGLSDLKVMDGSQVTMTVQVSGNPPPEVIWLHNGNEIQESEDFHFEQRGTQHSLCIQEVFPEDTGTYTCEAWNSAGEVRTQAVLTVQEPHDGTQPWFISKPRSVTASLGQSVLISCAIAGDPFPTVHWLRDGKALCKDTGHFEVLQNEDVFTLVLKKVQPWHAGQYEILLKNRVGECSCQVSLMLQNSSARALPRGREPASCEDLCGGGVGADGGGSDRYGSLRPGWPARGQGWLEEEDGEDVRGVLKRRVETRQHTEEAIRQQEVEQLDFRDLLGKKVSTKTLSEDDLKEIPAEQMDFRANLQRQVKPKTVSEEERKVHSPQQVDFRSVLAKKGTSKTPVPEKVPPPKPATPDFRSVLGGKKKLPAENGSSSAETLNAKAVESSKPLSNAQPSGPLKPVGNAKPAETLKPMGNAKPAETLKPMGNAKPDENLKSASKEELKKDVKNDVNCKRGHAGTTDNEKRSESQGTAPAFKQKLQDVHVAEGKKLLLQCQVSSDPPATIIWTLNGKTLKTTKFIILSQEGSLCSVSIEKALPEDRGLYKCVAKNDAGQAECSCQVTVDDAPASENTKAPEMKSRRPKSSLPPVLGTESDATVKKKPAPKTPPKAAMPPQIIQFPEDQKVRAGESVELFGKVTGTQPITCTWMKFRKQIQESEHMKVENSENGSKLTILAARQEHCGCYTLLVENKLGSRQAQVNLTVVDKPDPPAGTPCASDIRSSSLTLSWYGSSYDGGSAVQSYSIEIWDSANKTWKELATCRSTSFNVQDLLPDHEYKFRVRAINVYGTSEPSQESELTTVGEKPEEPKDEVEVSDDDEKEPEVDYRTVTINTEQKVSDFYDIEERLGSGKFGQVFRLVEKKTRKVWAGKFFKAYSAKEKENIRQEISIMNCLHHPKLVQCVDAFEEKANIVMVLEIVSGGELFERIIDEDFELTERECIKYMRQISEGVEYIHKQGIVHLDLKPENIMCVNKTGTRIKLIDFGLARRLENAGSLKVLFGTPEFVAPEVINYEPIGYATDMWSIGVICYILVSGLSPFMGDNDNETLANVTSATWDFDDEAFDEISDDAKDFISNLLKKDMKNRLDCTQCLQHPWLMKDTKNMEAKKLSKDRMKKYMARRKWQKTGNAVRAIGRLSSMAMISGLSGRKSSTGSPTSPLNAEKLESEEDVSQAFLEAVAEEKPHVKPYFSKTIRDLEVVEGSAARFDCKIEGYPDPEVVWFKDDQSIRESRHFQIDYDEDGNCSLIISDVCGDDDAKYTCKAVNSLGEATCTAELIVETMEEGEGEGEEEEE
# [19] = biological target: 468 kinases including some pathogenic mutants (Homo sapiens, UniProt P37173); settings: TGFBR2 (Entrez TGFBR2), 1000 nM; read-out: Percent Control
# 468 kinases including some pathogenic mutants (Homo sapiens, UniProt P37173), sequence (P37173 23-567, change not shown): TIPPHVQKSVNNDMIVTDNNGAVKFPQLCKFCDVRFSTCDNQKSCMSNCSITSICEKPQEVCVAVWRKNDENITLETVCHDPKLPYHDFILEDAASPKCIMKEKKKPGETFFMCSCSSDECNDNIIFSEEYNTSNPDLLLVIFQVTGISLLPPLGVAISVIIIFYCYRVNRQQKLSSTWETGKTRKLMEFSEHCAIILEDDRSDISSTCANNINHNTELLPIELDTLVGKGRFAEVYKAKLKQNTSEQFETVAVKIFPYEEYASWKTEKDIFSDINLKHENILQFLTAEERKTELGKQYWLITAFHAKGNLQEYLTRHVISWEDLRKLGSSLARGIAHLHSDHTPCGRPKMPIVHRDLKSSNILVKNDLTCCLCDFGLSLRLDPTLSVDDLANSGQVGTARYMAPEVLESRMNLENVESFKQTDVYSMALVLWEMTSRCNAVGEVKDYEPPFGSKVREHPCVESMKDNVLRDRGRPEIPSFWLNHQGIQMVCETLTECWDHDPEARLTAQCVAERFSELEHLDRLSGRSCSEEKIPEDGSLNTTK
# [20] = biological target: 468 kinases including some pathogenic mutants (Homo sapiens, UniProt Q13976); settings: PRKG1 (Entrez PRKG1), 100 nM; read-out: Percent Control
# [21] = biological target: 468 kinases including some pathogenic mutants (Homo sapiens, UniProt Q8N568); settings: DCAMKL2 (Entrez DCLK2), 100 nM; read-out: Percent Control
# [22] = biological target: 468 kinases including some pathogenic mutants (Homo sapiens, UniProt Q9Y2H9); settings: MAST1 (Entrez MAST1), 100 nM; read-out: Percent Control
# [23] = biological target: 468 kinases including some pathogenic mutants (Homo sapiens, UniProt Q32MK0); settings: MLCK (Entrez MYLK3), 100 nM; read-out: Percent Control
# [24] = biological target: 468 kinases including some pathogenic mutants (Homo sapiens, UniProt Q9Y6R4); settings: MAP3K4 (Entrez MAP3K4), 100 nM; read-out: Percent Control
# [25] = biological target: 468 kinases including some pathogenic mutants (Homo sapiens, UniProt Q8WU08); settings: YANK1 (Entrez STK32A), 100 nM; read-out: Percent Control
# 468 kinases including some pathogenic mutants (Homo sapiens, UniProt Q8WU08), sequence (Q8WU08 whole entry, change not shown): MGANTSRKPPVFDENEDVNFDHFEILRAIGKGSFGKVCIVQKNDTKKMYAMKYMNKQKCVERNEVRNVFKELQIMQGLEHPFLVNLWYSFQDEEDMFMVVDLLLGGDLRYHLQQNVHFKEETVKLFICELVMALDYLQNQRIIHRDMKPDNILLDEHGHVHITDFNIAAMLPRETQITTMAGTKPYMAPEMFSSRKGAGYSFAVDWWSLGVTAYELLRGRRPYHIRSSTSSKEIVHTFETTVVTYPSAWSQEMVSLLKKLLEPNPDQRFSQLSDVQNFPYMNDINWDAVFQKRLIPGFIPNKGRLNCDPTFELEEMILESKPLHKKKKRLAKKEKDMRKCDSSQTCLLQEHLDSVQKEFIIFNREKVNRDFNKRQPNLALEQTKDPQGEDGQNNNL
# [26] = biological target: 468 kinases including some pathogenic mutants (Homo sapiens, UniProt P54760); settings: EPHB4 (Entrez EPHB4), 100 nM; read-out: Percent Control
# [27] = biological target: 468 kinases including some pathogenic mutants (Homo sapiens, UniProt P42336, C420R); settings: read-out: Percent Control
# [28] = biological target: 468 kinases including some pathogenic mutants (Homo sapiens, UniProt Q9P0L2); settings: MARK1 (Entrez MARK1), 1000 nM; read-out: Percent Control
smiles,measurement,setting,value
"CN1C(=O)[C@@H](N2CCc3c(nn(Cc4ccccc4)c3C(N)=O)C2=O)COc2cc(Cl)ccc21 [Compound 10, (S)-2-benzyl-6-(8-chloro-5-methyl-4-oxo-2,3,4,5-tetrahydrobenzo[b][1,4]oxazepin-3-yl)-7-oxo-4,5,6,7-tetrahydro-2H-pyrazolo[3,4-c]pyridine-3-carboxamide]",remaining activity at 0.1 µM,[1],76%
same,remaining activity at 0.1 µM,[2],85%
same,remaining activity at 1 µM,[3],100%
same,remaining activity at 0.1 µM,[4],82%
same,remaining activity at 1 µM,[5],100%
same,Percent Control,[6],100%
same,Percent Control,"[6]; FLT3(ITD) (Entrez FLT3), 100 nM",54%
same,remaining activity at 0.1 µM,[7]; CDK4 (Entrez CDK4),94%
same,remaining activity at 0.1 µM,[7]; CDK4-cyclinD1 (Entrez CDK4),77%
same,remaining activity at 0.1 µM,[7]; CDK4-cyclinD3 (Entrez CDK4),92%
same,remaining activity at 0.1 µM,[8],99%
same,remaining activity at 1 µM,[9],100%
same,remaining activity at 0.1 µM,[10],60%
same,remaining activity at 0.1 µM,[11],63%
same,remaining activity at 1 µM,[12],100%
same,remaining activity at 0.1 µM,[13],90%
same,remaining activity at 0.1 µM,[14],66%
same,remaining activity at 0.1 µM,[15],81%
same,remaining activity at 0.1 µM,[16],71%
same,remaining activity at 0.1 µM,[17],82%
same,remaining activity at 0.1 µM,[18],89%
same,remaining activity at 1 µM,[19],100%
same,remaining activity at 0.1 µM,[20],78%
same,remaining activity at 0.1 µM,[21],100%
same,remaining activity at 0.1 µM,[22],67%
same,remaining activity at 0.1 µM,[23],91%
same,remaining activity at 0.1 µM,[24],79%
same,remaining activity at 0.1 µM,[25],89%
same,remaining activity at 0.1 µM,[26],72%
same,remaining activity at 0.1 µM,[27],88%
same,remaining activity at 1 µM,[28],100%
